The source of these data is PMC12257542, “A Radiolabeled Photoswitchable G Protein-Coupled Receptor Antagonist Enlightens Ligand Binding Kinetics Associated with Photoswitching” (Journal of the American Chemical Society, 2025).

The nature of data set [1]: Photostationary state area percentages by LC-MS at the isosbestic point. The data set is classed as physicochemical.
The target in another data set is T1, H4R (Homo sapiens, UniProt Q9H3N8).
T1 construct: HA; expressed in transfected cells; host or cells: HEK293T, transient transfection (pcDEF3), cell homogenates
T1 sequence (Q9H3N8 whole entry): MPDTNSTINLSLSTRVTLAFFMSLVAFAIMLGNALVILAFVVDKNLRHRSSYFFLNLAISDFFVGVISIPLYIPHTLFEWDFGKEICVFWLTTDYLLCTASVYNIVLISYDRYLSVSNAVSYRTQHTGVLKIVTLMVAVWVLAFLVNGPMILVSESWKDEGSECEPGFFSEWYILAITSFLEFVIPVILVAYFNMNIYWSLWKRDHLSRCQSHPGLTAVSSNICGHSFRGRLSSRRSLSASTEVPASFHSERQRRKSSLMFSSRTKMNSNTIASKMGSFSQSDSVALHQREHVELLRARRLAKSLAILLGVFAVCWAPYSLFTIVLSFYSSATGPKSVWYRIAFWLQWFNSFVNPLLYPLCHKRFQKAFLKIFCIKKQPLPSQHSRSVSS
Put plainly: Histamine receptor selectivity binding, [3H]histamine competition on cell homogenates expressing H4R. To be noted: trans isomer; at concentrations lower than 1 μM; competition with [3H]histamine.

A further data set addresses H3R (Homo sapiens, UniProt Q9Y5N1). Put plainly: Functional H3R NanoBiT-PKA (cAMP sensor) assay in transiently transfected HEK293T cells. It is filed as cell-based.
The target in another data set is hH3R (Homo sapiens, UniProt Q9Y5N1). In words: Competition binding of non-labeled ligands with trans-[3H]3f on hH3R-expressing cell homogenates. To be noted: read-out: pKi in competition with trans-[3H]3f (converted).
hH3R, sequence (Q9Y5N1 whole entry): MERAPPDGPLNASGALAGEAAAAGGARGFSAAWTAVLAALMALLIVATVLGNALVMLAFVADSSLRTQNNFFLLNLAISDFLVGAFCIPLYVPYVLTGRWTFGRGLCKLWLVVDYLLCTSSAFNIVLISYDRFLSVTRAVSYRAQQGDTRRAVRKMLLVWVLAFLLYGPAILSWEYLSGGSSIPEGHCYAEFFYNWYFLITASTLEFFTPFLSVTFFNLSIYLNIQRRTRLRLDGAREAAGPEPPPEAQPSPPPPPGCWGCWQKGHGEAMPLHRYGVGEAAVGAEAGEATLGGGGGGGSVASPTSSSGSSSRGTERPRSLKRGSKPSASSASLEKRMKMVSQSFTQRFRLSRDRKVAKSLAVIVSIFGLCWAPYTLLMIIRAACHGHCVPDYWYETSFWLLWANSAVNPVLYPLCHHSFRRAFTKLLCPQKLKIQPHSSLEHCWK
Data set [2] in a line: Nephelometry (qualitative solubility comparison). To be noted: trans state for VUF14862, either state for 3f. It is filed as physicochemical.
Data set [3] is described as follows: Detailed photochemical characterization of 3f (1H NMR, UV-vis switching cycles). It is filed as physicochemical. How it is done: Figure S10. Photochemical properties of 3f. (A) UV-vis spectra of 25 µM 3f in HBSS buffer containing 1% DMSO in the dark, after illumination to PSScis with 365 ± 10 nm for 2 min and after subsequent illumination to PSStrans with 506 ± 20 nm for 2 min. (B) Representative parts of LC−MS chromatograms of 3f in the dark, after illumination with 365 ± 10 nm for 300 s to reach PSScis and subsequently with 506 ± 20 nm for 300 s to reach PSStrans (full chromatograms […]
(C) Part of 1H NMR spectra of 10 mM 3f in DMSO-d6 (representing the two aromatic signals) in the dark, after illumination with 365 ± 10 nm for 600 s to reach PSScis and subsequently 506 ± 20 nm for 900 s to reach PSStrans (full spectra are shown in Figure S12). (D) Reversible isomerization cycles of 25 µM 3f in HBSS buffer containing 1% DMSO, repeatedly illuminated for 30 s with 365 ± 10 nm to reach PSScis and subsequently for […]
60 s with 506 ± 20 nm to reach PSStrans. […]
states in the 400-550 nm area (Figure S10A). This allows efficient trans-PSScis photoswitching in HBSS buffer using UV light (365 nm) and PSScis-PSStrans back-switching with green light (506 nm). LC-MS analysis (Figure S10B, S11) and, more quantitively, 1H NMR analysis (Figure S10C, S12) reveal high PSScis and PSStrans values for 3f (98% and >95% cis isomer for PSScis by LC-MS and 1H NMR analysis, respectively; 93% and 93% trans isomer for PSStrans by LC-MS and 1H NMR analysis, respectively). These analyses also confirmed that no photodecomposition occurs upon illumination with either 365 or 506 nm. Reversible isomerization cycles could be conducted in HBSS buffer without any photobleaching (Figure […]
S10D). […] Subsequently, the […]
UV−Vis spectra were recorded using a Thermo-scientific Evolution 201 PC spectrophotometer equipped with a thermostated cell holder set at 20 °C. […] The light intensity used for the lambda 10-3 optical filter is 0.93 mW/mm2 using the 360 ± 20 nm filter, 0.79 mW/mm2 for the 434 ± 9 nm filter, 0.77 mW/mm2 for the 494 ± 9 nm filter as measured using a Thorlabs PM16−401 power meter. […]

Like-named read-outs stand apart in the source and are kept apart here.

H3R, sequence (Q9Y5N1 whole entry): as above

In the case of `Cc1nn(C2CCN(C)CC2)c(C)c1/N=N/c1ccc(O[C@H]2C[C@H](N3CCCCC3)C2)cc1` [Compound 3f], the “PSScis (area %cis)” value in data set [1] (after illumination of trans isomer with 365 ± 10 nm at 1 mM in DMSO for 10 min) came to 98 area %. The “PSStrans (area %trans)” value in data set [1] (illumination of PSS cis state with 506 ± 20 nm at 1 mM in DMSO for 10 min) was found to be 93 area %. At H4R, the “binding to H4R” value is given as “does not bind”. For the same compound, the “block of the H3R agonist response” value at H3R (100 nM trans-3f preincubated, 10 nM immethridine, dark) was “approximately 80%”. Further, the “reversal of the response, % of the maximal agonist response” value on H3R (100 nM trans-3f, 10 nM immethridine, after 365 nm LED light 10 min, 2 mW) was “approximately 80%”. The IC50 is 398 nM on H3R (365 nm 10 min (second cycle), 10 nM immethridine, read-out: pIC50, dynamic trans-3f switching step 4 (converted)); 794 nM at H3R (365 nm 10 min, 10 nM immethridine, read-out: pIC50, dynamic trans-3f switching step 2 (converted)); 50.1 nM on H3R (500 nm 10 min (second cycle), 10 nM immethridine, read-out: pIC50, dynamic trans-3f switching step 5 (converted)); 50.1 nM at H3R (500 nm 10 min, 10 nM immethridine, read-out: pIC50, dynamic trans-3f switching step 3 (converted)); 398 nM on H3R (PSS cis (pre-illuminated trans-3f), competition with 10 nM immethridine, 15 min incubation, read-out: pIC50 3f-PSScis (converted)); 20 nM on H3R (no irradiation (dark), 10 nM immethridine, read-out: pIC50, dynamic trans-3f switching step 1 (converted)). Besides, the IC50 at H3R (trans isomer, competition with 10 nM immethridine, 15 min incubation, read-out: pIC50 trans-3f (converted)) is 31.6 nM. Moreover, at H3R (trans-3f versus 3f-PSS cis), the “Fold IC50 shift” value was 12.6 fold. In addition, the figures for the Ki on hH3R (unlabeled PSS cis state) and at hH3R (unlabeled trans isomer) were 20 nM and 1 nM, respectively. For the same compound, the “concentrations with tendency to aggregate/precipitate” value in data set [2] is reported as “not observed”. The “PSScis (% cis isomer) by 1H NMR” value in data set [3] (10 mM in DMSO-d6, 365 ± 10 nm for 600 s) is above 95%. Also, the “PSStrans (% trans isomer) by 1H NMR” value in data set [3] (10 mM in DMSO-d6, 506 ± 20 nm for 900 s) is 93%. In data set [3] (illumination with either 365 or 506 nm, LC-MS and 1H NMR), the photodecomposition upon illumination entry is “no”.
